Among the data in patent US20230158179A1, “RADIOPHARMACEUTICAL CONJUGATE COMPOSITIONS AND USES THEREOF” (RayzeBio, Inc., priority 2020, published 2023) are Kd, fraction unbound and EC50 values, retold here.

Where two headings read alike, the source gives them in different places. Numbered stars: 1 amine (or outer) side, 2 acyl side, 3 side chain; on linkers, the order of the positions; unused ones are H or OH. Bridge positions count the residues as written; N and C are the ends. Square brackets hold non-standard residues; d marks the D form. Peptide text beside a SMILES is read from it. Trp(6-Cl) = N[C@@H](Cc1c[nH]c2cc(Cl)ccc12)C(=O)O; Phe(3-Ph) = N[C@@H](Cc1cccc(-c2ccccc2)c1)C(=O)O; Bip = N[C@@H](Cc1ccc(-c2ccccc2)cc1)C(=O)O; Phe(3-Cl) = N[C@@H](Cc1cccc(Cl)c1)C(=O)O; γGlu = O=C(O)[C@H](CCC(=O)[*:2])N[*:1]; NMeY = CN[C@@H](Cc1ccc(O)cc1)C(=O)O; NMeF = CN[C@@H](Cc1ccccc1)C(=O)O; hPhe = N[C@@H](CCc1ccccc1)C(=O)O; 3Pal = N[C@@H](Cc1cccnc1)C(=O)O; Ahp(2) = CCCCC[C@H](N)C(=O)O; Cba = N[C@@H](CC1CCC1)C(=O)O; Chg = N[C@H](C(=O)O)C1CCCCC1; NMeA = CN[C@@H](C)C(=O)O; βAla = NCCC(=O)O; Sar = CNCC(=O)O Where only a bound is given, the exact number is not on record here.

One data set deals with T1, PSMA (Homo sapiens, UniProt Q04609).
T1 construct: purchased AcroBiosystems PSA-H82Qb
T1 sequence (Q04609 whole entry): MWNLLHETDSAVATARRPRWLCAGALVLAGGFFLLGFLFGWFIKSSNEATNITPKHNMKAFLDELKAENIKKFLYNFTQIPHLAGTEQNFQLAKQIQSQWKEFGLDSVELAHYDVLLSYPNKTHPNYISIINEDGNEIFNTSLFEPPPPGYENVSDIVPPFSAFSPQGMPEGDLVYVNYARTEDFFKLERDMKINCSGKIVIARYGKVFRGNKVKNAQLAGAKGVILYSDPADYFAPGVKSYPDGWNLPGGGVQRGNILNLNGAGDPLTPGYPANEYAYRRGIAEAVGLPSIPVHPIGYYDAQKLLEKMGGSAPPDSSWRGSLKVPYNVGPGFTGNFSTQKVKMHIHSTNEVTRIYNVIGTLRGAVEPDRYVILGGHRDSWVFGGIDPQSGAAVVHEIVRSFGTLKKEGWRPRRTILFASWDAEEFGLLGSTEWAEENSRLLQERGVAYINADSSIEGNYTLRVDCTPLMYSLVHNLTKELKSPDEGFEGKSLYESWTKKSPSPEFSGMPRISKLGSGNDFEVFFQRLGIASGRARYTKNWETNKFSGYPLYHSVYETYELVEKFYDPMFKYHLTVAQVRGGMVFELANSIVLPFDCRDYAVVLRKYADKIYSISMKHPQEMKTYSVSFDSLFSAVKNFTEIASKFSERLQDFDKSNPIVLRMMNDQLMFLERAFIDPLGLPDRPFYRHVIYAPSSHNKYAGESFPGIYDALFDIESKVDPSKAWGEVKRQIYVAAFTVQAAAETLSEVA
Nature of the data set: Peptide binding to PSMA (SPR, Biacore 8K). The following applies: His-Avi-PSMA immobilized, 25° C., Langmuir 1:1 binding model. How it is done:
For analysis of peptide binding, a Biacore 8K instrument was used utilizing a SA chip. His-Avi-PSMA (AcroBiosystems, PSA-H82Qb) was immobilized on the chip using streptavidin-biotin chemistry at 25° C. in HBS-P+ buffer (10 mM HEPES, 150 mM NaCl, 0.05% Tween-20, pH 7.4) to a level of 800-2200 RU (dependent on the analyte molecular weight). A dilution series of peptides was prepared in this buffer with a final DMSO concentration of 1% with a top peptide concentration between 10-100 nM and 8 further 2-fold dilutions. The SPR analysis was run at 25° C. at a flow rate of 100 μL/min in HBS-P+ with 1% DMSO running buffer and with a 120 second association and 10,000 second dissociation using single cycle kinetics methodology. All data was analyzed using Biacore Insight Evaluation Software version 3. Data was fitted using a Langmuir 1:1 binding model.
Background: SPR reads the build-up and loss of mass on a sensor chip optically.

Data set [1] deals with T2, Human Serum Albumin (HSA) (Homo sapiens, UniProt P02768).
T2 construct: purchased ChiralPAK HSA HPLC column, 50×4 mm
T2 sequence (P02768 25-609): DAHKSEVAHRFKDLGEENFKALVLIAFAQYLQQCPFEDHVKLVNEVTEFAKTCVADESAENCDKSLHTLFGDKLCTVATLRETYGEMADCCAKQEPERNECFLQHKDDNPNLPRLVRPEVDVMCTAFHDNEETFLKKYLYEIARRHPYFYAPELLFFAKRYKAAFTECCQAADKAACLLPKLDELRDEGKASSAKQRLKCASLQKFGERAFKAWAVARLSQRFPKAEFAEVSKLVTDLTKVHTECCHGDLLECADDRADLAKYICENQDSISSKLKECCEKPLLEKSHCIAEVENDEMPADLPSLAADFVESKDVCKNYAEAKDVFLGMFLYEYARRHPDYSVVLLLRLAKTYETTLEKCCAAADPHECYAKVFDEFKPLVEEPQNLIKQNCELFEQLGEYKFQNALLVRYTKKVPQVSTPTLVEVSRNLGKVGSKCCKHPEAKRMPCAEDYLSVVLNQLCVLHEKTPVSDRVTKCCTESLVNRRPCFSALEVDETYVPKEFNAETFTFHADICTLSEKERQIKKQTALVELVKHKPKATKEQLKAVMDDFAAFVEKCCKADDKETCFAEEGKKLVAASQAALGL
In words: HSA-HPLC plasma protein binding (immobilized human serum albumin-HPLC). Type of data set: in vitro ADME. The following applies: HSA-HPLC method, room temperature, estimated from gradient retention times, read-out: % Bound to HSA at r.t. An excerpt: • HSA-HPLC method (measurement of drug protein binding by immobilized human serum albumin-HPLC). A 13-minute HPLC (Thermo Vanquish Horizon with Diode Array Detector) gradient method was used to determine the HSA (Human Serum Albumin) binding of novel compounds using a chemically bonded protein stationary phase (ChiralPAK HSA HPLC column, 50×4 mm). The HSA binding values were derived from the gradient retention times that were converted to the logarithm of the equilibrium constant using data from a calibration set of molecules. The % bound to plasma values for the calibrator compounds were converted to the linear free energy values using the following equation: LogK=log[% PPB/(101−% PPB)]. The logarithmic value of the gradient retention times from the experiment were plotted against the linearized values of the percent bound to plasma. The slope and the intercept were used to convert the retention times to linear free energy values (LogK), from which the estimated % protein binding was calculated using the following equation: % Binding=[(101·10^LogK)/(1+10^LogK)]. Aqueous mobile phase (A) was 50 mM ammonium acetate solution, ph7.4 and the organic mobile phase (B) was 2-propanol. […] Chromatograms were recorded at 280 nm by a diode array UV absorption detector. […]

The next data set has as its target T3, FOLR1 (Homo sapiens, UniProt P15328).
T3 construct: purchased AcroBiosystems F01-H82F9
In words: Peptide binding to FOLR1 (SPR, Biacore 8K). The conditions noted are these: FOLR1-Fc-Avi immobilized, 25° C., Langmuir 1:1 binding model. The method, then: For analysis of peptide binding, a Biacore 8K instrument was used utilizing either a SA chip or a CAP chip. FOLR1-Fc-Avi (AcroBiosystems, F01-H82F9) was immobilized on the chip using streptavidin-biotin chemistry at 25° C. in PBS-P+ buffer (20 mM phosphate, 2.7 mM KCl, 137 mM NaCl, 0.05% Tween-20, pH 7.4) to a level of 500-2500 RU (dependent on the analyte molecular weight). A dilution series of peptides was prepared in this buffer with a final DMSO concentration of 1% with a top peptide concentration at 50 or 100 nM and 8 further 2-fold dilutions. The SPR analysis was run at 25° C. at a flow rate of 100 μL/min in PBS-P+ with 1% DMSO running buffer and with a 120 second association and 10,000 second dissociation using single cycle kinetics methodology. All data was analyzed using Biacore Insight Evaluation Software version 3.) Data was fitted using a Langmuir 1:1 binding model.
Kd values of peptides of the present disclosure are given in Table 8 below, where Kd 0 nM<A≤10 nM.

For data set [2], the system named is PSMA expressing cells (LnCap). Nature of the data set: FACS binding to PSMA expressing cells. The conditions noted are these: biotinylated compounds. Format: cell-based. How it is done: LnCap cells, 2e^6 cells/ml
SYTOX viability dye • (1) Washed cells with PBS once. • (2) Incubated cells with 5 ml of Accutase at 37 degrees for 2-5 minutes. Gently rocking the flask until the layer of cells pilling off • (3) Added 15 ml of PBS into flask and transferred to a 50 ml conical tube • (4) Spun down 1600 rpm 3 minutes • (5) Resuspended in 2 ml of PBS, and counted cells • (6) Adjusted cell density to 2e6 cells/ml with PBS and then added 100 uL/well to the plate and mixed well • (7) Spun down 1600 rpm 3 minutes • (8) Add 100 uL of compound/well respectively. Prepared serial dilute compound in PBS, 1 uM to 0.01 nM, 1:3 dilution, 10 point curve • (9) Incubated for 50 minutes total • (10) Washed wells with 150 uL PBS and spun down 1600 rpm 3 min and dumped • (11) Added SA-A647, 1:1000 dilution in FACS buffer, 100 ul/well to respective wells • (12) Incubated for 50 min on ice • (13) Washed with 200 uL PBS spun 1600 rpm 3 min dump • (14) Resuspended in 100 uL SYTOX, 1:1000 dilution in FACS buffer • (15) Acquired
(In general: A flow cytometer gives signals particle by particle.)

The target in a further data set is T4, Trop-2 (Homo sapiens, UniProt P09758).
T4 construct: purchased AcroBiosystems TR2-H5223
T4 sequence (P09758 27-323): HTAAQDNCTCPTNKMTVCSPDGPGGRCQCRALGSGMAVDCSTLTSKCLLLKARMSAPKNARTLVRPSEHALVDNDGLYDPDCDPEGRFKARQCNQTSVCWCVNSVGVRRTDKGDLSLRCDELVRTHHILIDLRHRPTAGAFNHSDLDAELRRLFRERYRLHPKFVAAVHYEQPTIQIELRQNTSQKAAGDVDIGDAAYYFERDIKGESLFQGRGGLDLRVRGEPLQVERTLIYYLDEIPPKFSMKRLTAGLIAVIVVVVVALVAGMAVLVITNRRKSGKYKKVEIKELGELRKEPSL
Nature of the data set: Conjugate binding to Trop-2 (BLI, GatorPrime). The following applies: biotinylated peptides immobilized, His-tagged Trop-2, 30° C., Langmuir 1:1 binding model. How it is done: For analysis of peptide binding, a GatorPrime instrument was used utilizing SMAP probes. Biotinylated peptides of 1 μM were immobilized on the sensor using streptavidin-biotin chemistry at 25° C. in HBS-P+ buffer (10 mM HEPES, 150 mM NaCl, 0.05% Tween-20, pH 7.4). A dilution series of His-tagged Trop-2 (AcroBiosystems, TR2-H5223) was prepared in this buffer with a top peptide concentration at 100 nM and 6 further 3-fold dilutions. The BLI analysis was run at 30° C. with a 120 second association and 120 second dissociation. All data was analyzed using GatorLaunch software. Data was fitted using a Langmuir 1:1 binding model.

T3 sequence (P15328 25-234): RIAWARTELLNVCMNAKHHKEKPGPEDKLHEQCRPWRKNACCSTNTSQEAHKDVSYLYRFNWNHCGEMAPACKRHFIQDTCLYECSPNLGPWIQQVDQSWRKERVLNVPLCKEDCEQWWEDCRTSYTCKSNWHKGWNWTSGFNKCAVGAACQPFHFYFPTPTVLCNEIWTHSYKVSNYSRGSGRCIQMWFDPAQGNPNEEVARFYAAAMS

Usually Kd stands for the constant that tells how readily two partners part at equilibrium. As to `CC(C)[C@@H]1NC(=O)[C@H](CC(=O)O)NC(=O)[C@H](Cc2cccc(-c3ccccc3)c2)NC(=O)[C@H](Cc2c[nH]c3ccccc23)NC(=O)CSC[C@@H](C(N)=O)NC(=O)[C@H](CC(=O)O)NC(=O)[C@H](Cc2cccc(-c3ccccc3)c2)NC(=O)[C@H](Cc2c[nH]c3ccccc23)NC(=O)[C@H](CC2CCC2)NC(=O)[C@H](CC(=O)O)NC(=O)[C@H](CO)NC(=O)[C@H](CC(=O)O)NC1=O` [Compound P-21] ({CH2CO}-W[Phe(3-Ph)]DVDSD[Cba]W[Phe(3-Ph)]DC-NH2; thioether N-12), the Kd at PSMA is < 10 nM.

Turning to `CC[C@H](C)[C@@H]1NC(=O)[C@H](Cc2cccnc2)NC(=O)[C@@H](Cc2ccccc2)NC(=O)CSC[C@@H](C(N)=O)NC(=O)[C@H]([C@@H](C)CC)NC(=O)[C@H]([C@@H](C)CC)NC(=O)[C@H](Cc2ccccc2)NC(=O)[C@H](Cc2ccc(O)cc2)N(C)C(=O)[C@H](CC(=O)O)NC(=O)[C@H](CO)NC(=O)[C@H](C)N(C)C(=O)[C@H](C)N(C)C(=O)[C@H](Cc2cccnc2)NC(=O)[C@H](CC(C)C)NC1=O` [Compound P-30] ({CH2CO}-[dF][3Pal]IL[3Pal][NMeA][NMeA]SD[NMeY]FIIC-NH2; thioether N-14), in data set [1] (plasma), the fraction unbound was 0.1 to 0.3.

With `C[C@@H](O)[C@@H]1NC(=O)[C@H](CC(=O)O)NC(=O)[C@H](Cc2cccc(Cl)c2)NC(=O)[C@H](CC(=O)O)NC(=O)[C@H](Cc2ccccc2)N(C)C(=O)[C@H](C2CCCCC2)NC(=O)[C@H](CCCNC(=N)N)NC(=O)[C@H](CC(=O)O)NC(=O)CSC[C@@H](C(N)=O)NC(=O)[C@H](Cc2ccc(O)cc2)NC(=O)[C@H](Cc2c[nH]c3ccccc23)NC(=O)[C@H](Cc2ccc(O)cc2)N(C)C(=O)[C@H](Cc2ccc(O)cc2)N(C)C1=O` [Compound P-11] ({CH2CO}-DR[Chg][NMeF]D[Phe(3-Cl)]DT[NMeY][NMeY]WYC-NH2; thioether N-13), the Kd at FOLR1 was < 10 nM.

The term EC50 denotes the midpoint of the concentration-response curve. Low values mean higher potency in that assay, high ones lower potency in that assay. The compound “P-22 ([NMeF]DDSVWD[hPhe]YC-NH2; bridge N-10; not fully specified (N-terminus, bridges)) [Compound P-22]” came in with an EC50 in data set [2] of 100 to 1000 nM.

For `CC(C)C[C@@H]1NC(=O)[C@H](CCCNC(=N)N)NC(=O)[C@H](C)NC(=O)CSC[C@@H](C(N)=O)NC(=O)[C@H](Cc2ccc(O)cc2)NC(=O)[C@H](Cc2c[nH]c3ccccc23)NC(=O)[C@H](Cc2ccc(O)cc2)N(C)C(=O)[C@H](Cc2ccc(O)cc2)N(C)C(=O)[C@H]([C@@H](C)O)NC(=O)[C@H](CC(=O)O)NC(=O)[C@H](Cc2ccc(O)cc2)NC(=O)[C@H](CC(=O)O)NC(=O)[C@H](Cc2ccccc2)N(C)C1=O` [Compound P-10] ({CH2CO}-ARL[NMeF]DYDT[NMeY][NMeY]WYC-NH2; thioether N-13), the Kd on FOLR1 was < 10 nM.

“C-40: "Conjugate C-40 contains a monocyclic peptide P-40 of Table 3"; made from peptide-3 and DOTA-OSu ([dA]D[Bip]IYPA[Bip]SSES[NMeF]C[βAla][dK](PEG‑DOTA)[γGlu][γGlu]-NH2; bridge N-14; not fully specified (bridges)) [Compound C-40]”: in the data set with Trop-2, the Kd is 10 to 1000 nM.

Consider `CCCCC[C@@H]1NC(=O)CN(C)C(=O)[C@H](C(C)C)NC(=O)[C@H](Cc2c[nH]c3cc(Cl)ccc23)NC(=O)CNC(=O)[C@H]([C@@H](C)O)NC(=O)[C@H](Cc2ccccc2)N(C)C(=O)CNC(=O)[C@H](CCCNC(=N)N)NC(=O)[C@H](Cc2ccc(O)cc2)NC(=O)[C@H](Cc2cccc(Cl)c2)NC(=O)[C@H](C(C)C)NC(=O)[C@H](C)NC(=O)CSC[C@@H](C(N)=O)NC1=O` [Compound P-31] ({CH2CO}-AV[Phe(3-Cl)]YRG[NMeF]TG[Trp(6-Cl)]V[Sar][Ahp(2)]C-NH2; thioether N-14), for which the fraction unbound in data set [1] was 0.1 to 0.3.

With `C[C@@H](O)[C@@H]1NC(=O)[C@H](CC(=O)O)NC(=O)[C@H](Cc2ccc(O)cc2)NC(=O)[C@H](CC(=O)O)NC(=O)[C@H](Cc2ccccc2)N(C)C(=O)[C@H](C2CCCCC2)NC(=O)[C@H](CCCNC(=N)N)NC(=O)[C@H](CC(=O)O)NC(=O)CSC[C@@H](C(N)=O)NC(=O)[C@H](Cc2ccc(O)cc2)NC(=O)[C@H](Cc2c[nH]c3ccccc23)NC(=O)[C@H](Cc2ccc(O)cc2)N(C)C(=O)[C@H](Cc2ccc(O)cc2)N(C)C1=O` [Compound P-12] ({CH2CO}-DR[Chg][NMeF]DYDT[NMeY][NMeY]WYC-NH2; thioether N-13), the Kd on FOLR1 was < 10 nM.
